In paper PMC2713788 (Experimental eye research, 2009):
No end group written: not given here.

Assays:
in vitro [1] = assay type: in vitro ADME; settings: human, cells or culture medium, bradykinin remaining in media
in vitro [2] = assay type: in vitro ADME; settings: human, cells or culture medium, bradykinin present in media

## RPPGFSPFR [bradykinin]
In vitro [1]
  remaining at 0.5 h, 500 pg/ml: 51 ± 5%
  remaining at 1 h, 500 pg/ml: 15 ± 3%
  remaining at 1.5 h, 500 pg/ml: 9 ± 3%
In vitro [2]
  remaining at 0.5 h, 500 pg/ml: 73 ± 3%
  remaining at 1 h, 500 pg/ml: 52 ± 3%
